This note sets out measurements from ChEMBL document CHEMBL4507263, “Data for DCP probe BAY-474” (2021).

Series [1] addresses Cyclin-dependent kinase 3 (Homo sapiens) (UniProt Q00526). The series is described as follows: CDK3/cyclinE (h) Millipore kinase activity assay. The settings on record: Compound concentration 1.0 uM.
In series [2] the target is Mitogen-activated protein kinase kinase kinase 5 (Homo sapiens) (UniProt Q99683). The series is described as follows: ASK1 (h) Millipore kinase activity assay. The conditions noted are these: Compound concentration 1.0 uM.
Series [3] concerns the target Serine/threonine-protein kinase MRCK alpha (Homo sapiens) (UniProt Q5VT25). Put plainly: MRCKalpha (h) Millipore kinase activity assay. The settings on record: Compound concentration 1.0 uM.
Series [4] concerns the target Sodium-dependent serotonin transporter (Homo sapiens) (UniProt P31645). The settings on record: Compound concentration 10.0 uM.
For series [5], the target named is Ephrin type-A receptor 7 (Homo sapiens) (UniProt Q15375). Put plainly: EphA7 (h) Millipore kinase activity assay. The conditions noted are these: Compound concentration 1.0 uM.
The target of series [6] is Activin receptor type-1B (Homo sapiens) (UniProt P36896). Put plainly: ALK4 (h) Millipore kinase activity assay. The conditions noted are these: Compound concentration 1.0 uM.
Series [7] concerns the target Ribosomal protein S6 kinase alpha-4 (Homo sapiens) (UniProt O75676). Put plainly: MSK2 (h) Millipore kinase activity assay. The conditions noted are these: Compound concentration 1.0 uM.
For series [8], the target named is Casein kinase II subunit alpha (Homo sapiens) (UniProt P68400). The series is described as follows: CK2 (h) Millipore kinase activity assay. The conditions noted are these: Compound concentration 1.0 uM.
Sequence of Casein kinase II subunit alpha (Homo sapiens) (P68400 whole entry, looked up): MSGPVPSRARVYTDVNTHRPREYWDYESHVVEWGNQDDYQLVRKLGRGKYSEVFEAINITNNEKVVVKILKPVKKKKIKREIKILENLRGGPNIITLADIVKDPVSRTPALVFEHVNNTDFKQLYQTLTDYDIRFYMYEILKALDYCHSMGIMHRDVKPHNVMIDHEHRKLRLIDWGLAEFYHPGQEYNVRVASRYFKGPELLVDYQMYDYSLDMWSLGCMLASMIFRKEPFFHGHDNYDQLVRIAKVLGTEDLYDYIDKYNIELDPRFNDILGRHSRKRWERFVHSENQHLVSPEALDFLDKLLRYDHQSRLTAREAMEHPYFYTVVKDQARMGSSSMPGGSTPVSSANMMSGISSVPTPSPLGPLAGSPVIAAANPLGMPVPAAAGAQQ
Series [9] deals with L-type calcium channel, dihydropyridine site (Cav1.2 alpha-1C) (Homo sapiens, UniProt Q13936). Put plainly: Inhibition of Calcium Channel L-Type, Dihydropyridine at 10 µM in the Eurofins-Panlabs radioligand binding assay (Eurofins_assay_214600). Also noted: ligand concentration 0.1 nM, non-specific ligand with concentration 1 µM Nitrendipine, incubation time 90 min, incubation temperature 25 °C. The conditions noted are these: Wistar, rat, rat cerebral cortex preparation, probe [3H] Nitrendipine; compound concentration 10 uM; target entry is the homologue from another species.

Series [10] has as its target MAP kinase-activated protein kinase 5 (Homo sapiens) (UniProt Q8IW41). Put plainly: PRAK (h) Millipore kinase activity assay. The conditions noted are these: Compound concentration 1.0 uM.
Series [11] concerns the target Serine/threonine-protein kinase MARK1 (Homo sapiens) (UniProt Q9P0L2). The series is described as follows: MARK1 (h) Millipore kinase activity assay. The conditions noted are these: Compound concentration 1.0 uM.
Series [12] addresses Death-associated protein kinase 2 (Homo sapiens) (UniProt Q9UIK4). Put plainly: DAPK2 (h) Millipore kinase activity assay. The settings on record: Compound concentration 1.0 uM.
For series [13], the target named is Cyclin-dependent kinase 2/cyclin E (Homo sapiens) (UniProt P24864+P24941+O96020). Put plainly: CDK2/cyclinE (h) Millipore kinase activity assay. The settings on record: Compound concentration 1.0 uM. Format: protein-complex assay.
Series [14] has as its target T1, cGMP-dependent protein kinase 1 (Homo sapiens) (UniProt Q13976).
T1 sequence (whole entry): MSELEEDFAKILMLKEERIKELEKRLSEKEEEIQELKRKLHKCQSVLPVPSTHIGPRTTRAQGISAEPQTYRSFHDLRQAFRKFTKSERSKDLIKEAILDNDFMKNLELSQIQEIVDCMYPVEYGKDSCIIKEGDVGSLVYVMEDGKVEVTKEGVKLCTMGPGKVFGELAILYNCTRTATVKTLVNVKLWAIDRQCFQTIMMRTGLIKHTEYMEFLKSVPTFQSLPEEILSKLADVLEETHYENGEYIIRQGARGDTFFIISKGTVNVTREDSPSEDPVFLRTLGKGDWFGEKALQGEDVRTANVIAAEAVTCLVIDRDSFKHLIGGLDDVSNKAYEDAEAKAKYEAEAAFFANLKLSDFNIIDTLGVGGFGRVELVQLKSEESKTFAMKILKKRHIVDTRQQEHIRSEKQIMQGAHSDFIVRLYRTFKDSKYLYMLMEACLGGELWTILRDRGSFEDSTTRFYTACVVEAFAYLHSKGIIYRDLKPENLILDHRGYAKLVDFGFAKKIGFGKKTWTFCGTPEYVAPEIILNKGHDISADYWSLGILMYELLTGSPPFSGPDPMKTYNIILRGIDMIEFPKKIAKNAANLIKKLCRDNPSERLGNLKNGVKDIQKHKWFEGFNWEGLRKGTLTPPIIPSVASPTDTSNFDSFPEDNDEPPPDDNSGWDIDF
The series is described as follows: PKG1alpha (h) Millipore kinase activity assay. The settings on record: Compound concentration 1.0 uM.

For series [15], the target named is Macrophage-stimulating protein receptor (Homo sapiens) (UniProt Q04912). The series is described as follows: Ron (h) Millipore kinase activity assay. The conditions noted are these: Compound concentration 1.0 uM.
The target in series [16] is Serine/threonine-protein kinase 17A (Homo sapiens) (UniProt Q9UEE5). The series is described as follows: DRAK1 (h) Millipore kinase activity assay. The conditions noted are these: Compound concentration 1.0 uM.
Series [17] has as its target Protein kinase C theta type (Homo sapiens) (UniProt Q04759). Put plainly: PKCtheta (h) Millipore kinase activity assay. The settings on record: Compound concentration 1.0 uM.
The next series is filed under the species Oryctolagus cuniculus. The series is described as follows: Inhibition of Purinergic P2X at 10 µM in the Eurofins-Panlabs radioligand binding assay (Eurofins_assay_268700). Format: protein assay. The conditions noted are these: Compound concentration 10.0 uM.
For series [18], the target named is Bone morphogenetic protein receptor type-1A (Homo sapiens) (UniProt P36894). The conditions noted are these: Compound concentration 1000.0 nM.
Sequence of Bone morphogenetic protein receptor type-1A (Homo sapiens) (P36894 whole entry): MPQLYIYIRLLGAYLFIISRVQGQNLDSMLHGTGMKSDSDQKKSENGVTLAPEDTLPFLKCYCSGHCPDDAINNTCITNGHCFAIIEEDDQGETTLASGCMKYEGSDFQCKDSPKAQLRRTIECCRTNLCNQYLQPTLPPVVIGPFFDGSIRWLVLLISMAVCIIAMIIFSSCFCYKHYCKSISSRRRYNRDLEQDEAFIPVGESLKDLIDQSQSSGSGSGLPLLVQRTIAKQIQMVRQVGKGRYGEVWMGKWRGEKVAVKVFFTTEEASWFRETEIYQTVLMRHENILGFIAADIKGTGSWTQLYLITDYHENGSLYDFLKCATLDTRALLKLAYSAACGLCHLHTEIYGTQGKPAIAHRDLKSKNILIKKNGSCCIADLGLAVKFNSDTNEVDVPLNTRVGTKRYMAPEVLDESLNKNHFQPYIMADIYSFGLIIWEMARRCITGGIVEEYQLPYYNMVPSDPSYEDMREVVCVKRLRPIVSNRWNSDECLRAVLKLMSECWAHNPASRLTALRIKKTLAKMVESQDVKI
The target in series [19] is Tyrosine-protein kinase Fyn (Homo sapiens) (UniProt P06241). The conditions noted are these: Compound concentration 1000.0 nM.
The target in series [20] is Cyclin-dependent kinase-like 3 (Homo sapiens) (UniProt Q8IVW4). The settings on record: Compound concentration 1000.0 nM.
Sequence of Cyclin-dependent kinase-like 3 (Homo sapiens) (Q8IVW4 whole entry, looked up): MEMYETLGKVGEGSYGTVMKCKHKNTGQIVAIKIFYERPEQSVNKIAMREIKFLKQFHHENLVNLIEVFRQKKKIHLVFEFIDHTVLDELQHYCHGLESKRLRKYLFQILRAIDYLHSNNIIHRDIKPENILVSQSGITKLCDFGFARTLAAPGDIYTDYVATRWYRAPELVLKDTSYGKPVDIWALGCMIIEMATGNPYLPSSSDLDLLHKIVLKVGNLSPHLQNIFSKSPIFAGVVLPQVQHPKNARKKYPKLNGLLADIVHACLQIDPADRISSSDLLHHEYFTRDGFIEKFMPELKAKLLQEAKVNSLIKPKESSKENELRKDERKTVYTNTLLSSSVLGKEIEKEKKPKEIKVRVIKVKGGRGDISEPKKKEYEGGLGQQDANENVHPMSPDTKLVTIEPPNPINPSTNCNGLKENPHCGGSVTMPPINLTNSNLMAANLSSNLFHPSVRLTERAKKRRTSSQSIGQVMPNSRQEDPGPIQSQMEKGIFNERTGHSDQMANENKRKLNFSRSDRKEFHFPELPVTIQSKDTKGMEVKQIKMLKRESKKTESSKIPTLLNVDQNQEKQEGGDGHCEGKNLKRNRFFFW
Series [21] concerns Proto-oncogene tyrosine-protein kinase receptor Ret (Homo sapiens), P07949 [V804M]. The settings on record: Compound concentration 1000.0 nM.
Series [22] addresses Serine/threonine-protein kinase B-raf (Homo sapiens) (UniProt P15056). The conditions noted are these: Compound concentration 1000.0 nM.
The target in series [23] is Ephrin type-A receptor 1 (Homo sapiens) (UniProt P21709). The settings on record: Compound concentration 1000.0 nM.
Series [24] concerns the target Serine/threonine-protein kinase Nek4 (Homo sapiens) (UniProt P51957). The conditions noted are these: Compound concentration 1000.0 nM.
In series [25] the test system is Epidermal growth factor receptor (Homo sapiens), P00533 [UNDEFINED MUTATION]. The conditions noted are these: Compound concentration 1000.0 nM.
Sequence of Epidermal growth factor receptor (Homo sapiens), P00533 [UNDEFINED MUTATION] (P00533 whole entry, looked up, change not shown): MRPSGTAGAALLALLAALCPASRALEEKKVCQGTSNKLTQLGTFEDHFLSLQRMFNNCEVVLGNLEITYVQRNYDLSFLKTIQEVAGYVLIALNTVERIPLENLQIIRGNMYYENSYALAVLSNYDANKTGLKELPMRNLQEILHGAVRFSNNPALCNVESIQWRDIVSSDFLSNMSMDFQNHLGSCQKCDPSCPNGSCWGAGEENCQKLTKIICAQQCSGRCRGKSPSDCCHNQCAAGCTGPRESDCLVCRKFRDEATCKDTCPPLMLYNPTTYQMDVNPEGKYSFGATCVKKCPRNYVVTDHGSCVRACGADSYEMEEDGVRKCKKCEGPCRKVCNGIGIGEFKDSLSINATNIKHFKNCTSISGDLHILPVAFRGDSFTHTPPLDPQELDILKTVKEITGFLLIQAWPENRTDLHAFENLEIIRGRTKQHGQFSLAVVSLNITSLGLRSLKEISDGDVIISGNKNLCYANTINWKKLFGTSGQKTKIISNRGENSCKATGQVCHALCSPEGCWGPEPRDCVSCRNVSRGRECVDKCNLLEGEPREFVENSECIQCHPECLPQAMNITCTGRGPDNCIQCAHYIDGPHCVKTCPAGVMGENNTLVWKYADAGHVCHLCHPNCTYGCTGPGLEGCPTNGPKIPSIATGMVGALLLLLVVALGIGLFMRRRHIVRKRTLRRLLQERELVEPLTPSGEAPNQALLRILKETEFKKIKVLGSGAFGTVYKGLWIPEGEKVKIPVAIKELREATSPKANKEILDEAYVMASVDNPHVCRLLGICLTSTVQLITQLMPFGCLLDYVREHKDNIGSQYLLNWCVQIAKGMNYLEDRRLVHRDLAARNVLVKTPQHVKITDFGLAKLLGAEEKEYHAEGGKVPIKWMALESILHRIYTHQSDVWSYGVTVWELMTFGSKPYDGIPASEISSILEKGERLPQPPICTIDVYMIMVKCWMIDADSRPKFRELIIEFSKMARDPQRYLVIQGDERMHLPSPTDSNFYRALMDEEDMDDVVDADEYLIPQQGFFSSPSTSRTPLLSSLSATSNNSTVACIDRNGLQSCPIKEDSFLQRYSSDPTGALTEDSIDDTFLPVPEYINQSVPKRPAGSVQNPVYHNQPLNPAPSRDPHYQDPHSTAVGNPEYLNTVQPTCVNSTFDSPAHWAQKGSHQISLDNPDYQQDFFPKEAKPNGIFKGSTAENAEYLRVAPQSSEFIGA
Series [26] shares this test system. The conditions noted are these: Compound concentration 1000.0 nM. This is another data set of the same source.
For series [27], the target named is Interleukin-1 receptor-associated kinase 3 (Homo sapiens) (UniProt Q9Y616). The settings on record: Compound concentration 1000.0 nM.
Series [28] deals with cAMP-dependent protein kinase catalytic subunit PRKX (Homo sapiens) (UniProt P51817). The settings on record: Compound concentration 1000.0 nM.
Series [29] addresses 1-phosphatidylinositol 3-phosphate 5-kinase (Homo sapiens) (UniProt Q9Y2I7). The settings on record: Compound concentration 1000.0 nM.
Series [30] deals with Tyrosine-protein kinase FRK (Homo sapiens) (UniProt P42685). The conditions noted are these: Compound concentration 1000.0 nM.
Series [31] deals with Receptor-interacting serine/threonine-protein kinase 4 (Homo sapiens) (UniProt P57078). The conditions noted are these: Compound concentration 1000.0 nM.
For series [32], the target named is Cyclin-dependent kinase 17 (Homo sapiens) (UniProt Q00537). The settings on record: Compound concentration 1000.0 nM.
The target of series [33] is Tyrosine-protein kinase JAK1 (Homo sapiens) (UniProt P23458). The conditions noted are these: Compound concentration 1000.0 nM.
Series [34] has as its target Atypical kinase COQ8A, mitochondrial (Homo sapiens) (UniProt Q8NI60). The settings on record: Compound concentration 1000.0 nM.

Sequence of Sodium-dependent serotonin transporter (Homo sapiens) (P31645 whole entry, looked up): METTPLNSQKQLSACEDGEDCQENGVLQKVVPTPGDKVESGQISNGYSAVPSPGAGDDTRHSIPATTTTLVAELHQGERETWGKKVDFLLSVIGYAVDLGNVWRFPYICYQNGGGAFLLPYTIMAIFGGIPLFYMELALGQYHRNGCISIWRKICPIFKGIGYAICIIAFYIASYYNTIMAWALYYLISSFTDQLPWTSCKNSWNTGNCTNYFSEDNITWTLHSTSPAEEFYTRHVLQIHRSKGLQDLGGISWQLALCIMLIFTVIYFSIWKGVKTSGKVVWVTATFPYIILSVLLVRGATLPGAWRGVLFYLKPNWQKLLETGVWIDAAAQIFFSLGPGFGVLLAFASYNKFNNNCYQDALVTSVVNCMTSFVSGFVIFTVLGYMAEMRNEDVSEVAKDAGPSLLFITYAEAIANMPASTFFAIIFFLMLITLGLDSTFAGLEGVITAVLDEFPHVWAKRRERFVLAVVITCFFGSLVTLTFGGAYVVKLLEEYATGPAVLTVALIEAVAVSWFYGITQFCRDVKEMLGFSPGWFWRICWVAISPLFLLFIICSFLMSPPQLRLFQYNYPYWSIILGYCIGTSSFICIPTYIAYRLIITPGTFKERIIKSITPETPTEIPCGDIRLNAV
Sequence of Atypical kinase COQ8A, mitochondrial (Homo sapiens) (Q8NI60 163-647 limits assumed): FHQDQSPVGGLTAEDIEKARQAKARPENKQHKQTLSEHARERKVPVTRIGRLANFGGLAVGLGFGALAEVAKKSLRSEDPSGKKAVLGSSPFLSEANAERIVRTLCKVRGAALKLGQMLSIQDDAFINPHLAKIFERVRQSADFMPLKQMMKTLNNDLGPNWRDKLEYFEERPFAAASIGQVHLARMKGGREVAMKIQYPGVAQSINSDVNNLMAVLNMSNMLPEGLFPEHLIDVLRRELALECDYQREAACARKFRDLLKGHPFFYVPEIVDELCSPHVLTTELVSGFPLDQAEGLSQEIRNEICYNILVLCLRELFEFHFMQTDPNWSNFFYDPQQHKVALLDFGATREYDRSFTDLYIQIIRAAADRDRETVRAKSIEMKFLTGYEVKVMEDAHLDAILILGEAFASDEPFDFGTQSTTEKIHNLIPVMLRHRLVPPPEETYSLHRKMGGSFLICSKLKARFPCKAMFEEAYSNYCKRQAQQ
Sequence of Death-associated protein kinase 2 (Homo sapiens) (Q9UIK4 whole entry, looked up): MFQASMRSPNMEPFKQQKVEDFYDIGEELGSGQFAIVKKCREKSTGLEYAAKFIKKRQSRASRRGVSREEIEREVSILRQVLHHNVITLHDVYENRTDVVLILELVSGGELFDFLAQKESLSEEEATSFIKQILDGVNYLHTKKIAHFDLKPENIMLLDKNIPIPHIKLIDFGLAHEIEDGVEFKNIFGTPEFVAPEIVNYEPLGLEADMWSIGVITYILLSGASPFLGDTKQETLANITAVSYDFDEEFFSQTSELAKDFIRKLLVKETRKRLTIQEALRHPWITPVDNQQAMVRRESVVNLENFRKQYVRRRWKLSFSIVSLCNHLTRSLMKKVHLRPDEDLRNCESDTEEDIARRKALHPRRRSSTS
Sequence of Serine/threonine-protein kinase B-raf (Homo sapiens) (P15056 whole entry): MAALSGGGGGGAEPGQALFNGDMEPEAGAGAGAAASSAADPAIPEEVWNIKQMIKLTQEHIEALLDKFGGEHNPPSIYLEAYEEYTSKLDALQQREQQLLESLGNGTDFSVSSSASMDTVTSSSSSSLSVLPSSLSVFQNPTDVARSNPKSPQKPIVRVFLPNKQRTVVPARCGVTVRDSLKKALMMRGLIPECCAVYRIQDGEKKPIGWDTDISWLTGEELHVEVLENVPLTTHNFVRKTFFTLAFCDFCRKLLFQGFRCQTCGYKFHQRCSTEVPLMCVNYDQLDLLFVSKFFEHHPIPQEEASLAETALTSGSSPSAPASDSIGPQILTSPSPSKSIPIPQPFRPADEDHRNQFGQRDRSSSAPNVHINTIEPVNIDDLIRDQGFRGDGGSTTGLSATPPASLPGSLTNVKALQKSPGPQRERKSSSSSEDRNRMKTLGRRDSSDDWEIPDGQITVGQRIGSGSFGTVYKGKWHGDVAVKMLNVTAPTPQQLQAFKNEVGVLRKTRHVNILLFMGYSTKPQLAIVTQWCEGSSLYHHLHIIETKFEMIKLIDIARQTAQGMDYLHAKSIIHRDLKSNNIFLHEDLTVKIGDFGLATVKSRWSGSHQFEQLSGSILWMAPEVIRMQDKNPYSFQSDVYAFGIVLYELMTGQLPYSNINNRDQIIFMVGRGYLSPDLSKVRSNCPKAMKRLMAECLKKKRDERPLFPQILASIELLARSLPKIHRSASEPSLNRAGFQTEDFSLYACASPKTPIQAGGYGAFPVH

Take `CC1=C(C#N)C(c2ccc3[nH]nc(C)c3c2)C(C#N)=C(C)N1` [BAY-474]: the inhibition – broadly, the change of the read-out against control, counted positive when it falls – is -4% in [1]; -6% in series [2]; -10% in series [3]; -3.41% in series [4]; -2% in [5]; 4% in series [6]. Moreover, the inhibition is -1% in series [7]; -8% in series [8]; 6% in series [10]; 11% in series [11]; -4% in [12]; 9% in series [13]. For the same compound, the inhibition in series [14] is 7%; in series [15], 8%; in series [16], -6%; in series [17], 15%; in the series listed under Oryctolagus cuniculus it was -1%. Moreover, the inhibition at 90 min, 10 µM in [9] was 0% (not active).

Regarding `CC1=C(C#N)[C@@H](c2ccc3[nH]nc(C)c3c2)C(C#N)=C(c2ccc(Cl)cc2)N1` [BAY-827], the residual activity – broadly, the activity still measured, relative to the control – is 98.6% in series [18]; 69% in series [19]; 100% in series [20]; 73.8% in series [21]; 100% in series [22]; 100% in series [23]. The residual activity was 90.1% in [24]; 100% in series [25]; 75.1% in series [26]; 96.4% in series [27]; 100% in series [28]; 100% in [29]. In addition, the residual activity was 100% in [30]; 71.8% in series [31]; 87.2% in series [32]; 38.2% in [33]; 97.8% in [34].
